In patent US20030158254A1, “Engineering absorption of therapeutic compounds via colonic transporters” (XenoPort, Inc., priority 2002, published 2003):

What was measured:
human PEPT1 = target: T1, human PEPT1 (Homo sapiens, UniProt P46059); assay: Electrogenic transport (induced current) in Xenopus oocytes transfected with human PEPT1; format: cell-based
T1 construct: Rat and human PEPT1 and PEPT2 transporter cDNAs were subcloned into a modified pGEM plasmid; expressed in transfected cells; host or cells: Xenopus laevis oocytes injected with in vitro transcribed RNA
T1 sequence (P46059 1-708): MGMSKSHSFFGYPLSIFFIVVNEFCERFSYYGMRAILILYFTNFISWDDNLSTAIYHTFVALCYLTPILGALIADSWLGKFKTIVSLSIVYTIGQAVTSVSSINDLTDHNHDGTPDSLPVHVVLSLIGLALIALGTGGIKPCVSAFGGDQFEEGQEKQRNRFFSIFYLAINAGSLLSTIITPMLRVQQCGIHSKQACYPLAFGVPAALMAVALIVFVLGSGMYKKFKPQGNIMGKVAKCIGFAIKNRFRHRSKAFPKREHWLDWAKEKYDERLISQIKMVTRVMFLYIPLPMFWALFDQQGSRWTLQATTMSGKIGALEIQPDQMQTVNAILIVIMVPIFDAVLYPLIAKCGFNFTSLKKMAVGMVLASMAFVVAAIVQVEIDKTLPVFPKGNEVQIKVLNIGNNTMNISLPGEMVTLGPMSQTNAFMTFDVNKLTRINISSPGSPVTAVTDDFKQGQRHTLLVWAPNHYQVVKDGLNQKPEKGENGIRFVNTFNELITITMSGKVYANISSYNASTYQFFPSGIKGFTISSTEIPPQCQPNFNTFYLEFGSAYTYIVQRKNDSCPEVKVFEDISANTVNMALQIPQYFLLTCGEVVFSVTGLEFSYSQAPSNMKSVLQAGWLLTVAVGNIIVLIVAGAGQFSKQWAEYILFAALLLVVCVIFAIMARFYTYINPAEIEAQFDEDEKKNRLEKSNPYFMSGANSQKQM
Procedure: Rat and human PEPT1 and PEPT2 expressing CHO cell lines were prepared as described in PCT Application WO01/20331. Gabapentin-containing dipeptides were evaluated for interaction with the peptide transporters using a radiolabeled substrate uptake assay in a competitive inhibition format, as described in PCT Application WO01/20331. Transport-induced currents were also measured in Xenopus oocytes transfected with rat and human PEPT1 and PEPT2.
RNA preparation: Rat and human PEPT1 and PEPT2 transporter cDNAs were subcloned into a modified pGEM plasmid that contains 5′ and 3′ untranslated sequences from the Xenopus β-actin gene. These sequences increase RNA stability and protein expression. Plasmid cDNA was linearized and used as template for in vitro transcription (Epicentre Technologies transcription kit, 4:1 methylated:non-methylated guanosine triphosphate(GTP)).
Xenopus oocyte isolation. Xenopus laevis frogs were anesthetized by immersion in Tricaine ([…] in deionized water) for 15 min. […]
Electrophysiology measurements. Transport currents were measured 2-14 days after injection, using a standard two-electrode electrophysiology set-up (Geneclamp 500 amplifier, Digidata 1320/PCLAMP software and ADInstruments hardware and software were used for signal acquisition). […]

[1] = Uptake into plasma of Compound V following oral and intracolonic administration; format: in vivo, rat; settings: FIG. 4
Procedure: Rats were obtained commercially and were pre-cannulated in the both the ascending colon and the jugular vein. Animals were conscious at the time of the experiment. All animals were fasted overnight and until 4 hours post-dosing. Prodrugs were administered as a solution (in water or polyethylene glycol 400) directly into the colon via the cannula at a dose equivalent to 25 mg of gabapentin per kg. Blood samples (0.5 mL) were obtained from the jugular cannula at intervals over 8 hours and were quenched immediately by addition of acetonitrile/methanol to prevent further conversion of the prodrug. Blood samples were analyzed as described in the attached sample analysis summary.
FIG. 4 compares uptake into the plasma of Compound V following oral and intracolonic administration. […] The levels from oral and colonic administration cross at about 7 hr.

## CC(C)(N)C(=O)NCC1(CC(=O)O)CCCCC1 [Compound V, a-aminoisobutyryl gabapentin]
Human PEPT1; 1 mM, oocytes transfected with human PEPT1
  Vmax relative to reference substrate Gly-Sar: 66%
Human PEPT1; human PEPT transfected oocytes, with Lys(ε-Dansyl)-Leu
  Vmax relative to Gly-Sar in the presence of PEPT inhibitor Lys(ε-Dansyl)-Leu: < 5%
[1]; intracolonic versus oral
  Plasma peak after colonic dosing compared with oral: lower peak at a later time
[1]; oral versus intracolonic
  Time at which plasma levels from oral and colonic administration cross: about 7 hr
